{"source": "paper PMC4481117", "about": "(Molecular Pain, 2015)", "key": {"[1]": {"tested_on": "wild-type HEK293 cells", "test": "Translocation of Dyn A into wild-type HEK293 cells (immunolabeling)", "format": "cell-based, Human", "conditions": "20 μM Dyn A, 40 min at 37 °C", "protocol": "(§1) Fig. 5 Translocation of Dyn A into cells. Mac-1-expressing (a) and wild-type HEK293 (b) cells were incubated with 20 μM and 100 μM of Dyn A for 40 min at 37 °C, fixed, permeabilized and incubated with anti-dynorphin antibodies followed by Alexa Fluor 488-conjugated secondary goat anti-rabbit antibodies. No labeling was detected in the absence of primary antibody. c, Enlarged images of Dyn A-accumulated Mac-1- and wild-type HEK cells shown in a and b. d, Quantification of fluorescent cells shown in a and b\n(§2) Mac-1-HEK 293 and wild-type HEK 293 cells were incubated for 10 min with different concentrations (0–100 μM) of Dyn A and allowed to adhere to glass coverslips coated with poly-Lysine for 30 min. Adherent cells were fixed in 2 % paraformaldehyde solution, permeabilized with 0.1 % Tween-20, and blocked with 10 % normal goat serum plus 1 % BSA. The coverslips were incubated with 5 μg/ml polyclonal anti-Dyn A antibody followed by an secondary goat anti-rabbit antibody conjugated to Alexa Fluor 488 (1:1000). Images were taken using a Leica DM 4000B microscope (Leica, Buffalo Grove, IL)."}, "[2]": {"tested_on": "Mac-1 (Mac-1-HEK293 cells)", "test": "Inhibition of adhesion of Mac-1-HEK293 cells to fibrinogen by soluble peptides", "format": "cell-based, Human", "conditions": "soluble peptide 50 μM, 10 min at 22 °C; 2.5 μg/mL fibrinogen coating, 30 min at 37 °C; mean ± S.E., three experiments", "protocol": "Fig. 4 Effect of soluble Dyn A on Mac-1-mediated cell adhesion to fibrinogen. a (left ordinate), calcein-labeled Mac-1-HEK293 cells were preincubated with different concentrations of dynorphin A (black bar), dynorphin B (open bar) or control peptide (gray bar) for […] at 22 °C and added to the wells of microtiter plates coated with 2.5 μg/mL fibrinogen. Cells were allowed to adhere for 30 minutes at 37 °C before removing nonadherent cells. […] Data are expressed as a percentage of total cell fluorescence\nAdhesion assays were performed essentially as described previously. […] Cells were labeled with 10 μM calcein for 30 min at 37 °C and washed twice with Hanks’ Balanced salt solution (HBSS) containing 0.1 % BSA. Aliquots (100 μl) of labeled cells (5x10^5/ml) were added to each well and allowed to adhere for 30 min at 37 °C. The non-adherent cells were removed by two washes with PBS. Fluorescence was measured in a CytoFluorII fluorescence plate reader (Perceptive Biosystems, Framingham, MA). In inhibition experiments, cells were mixed with different concentrations of peptides, NIF or mAbs for 20 min at 22 °C before they were added to the wells coated with adhesive substrates. […] After aspirating the solution, labeled cells were added and cell adhesion was analyzed as above."}, "[3]": {"tested_on": "Mac-1-HEK293 cells", "test": "Translocation of Dyn A into Mac-1-HEK293 cells (immunolabeling)", "format": "cell-based, Human", "conditions": "40 min at 37 °C", "protocol": "as §1, §2"}, "[4]": {"tested_on": "Mac-1-deficient macrophages", "test": "Transwell migration of Mac-1-deficient peritoneal macrophages to Dyn A", "format": "cell-based, mouse", "conditions": "10 μM Dyn A, 90 min at 37 °C, TG-elicited", "protocol": "(§3) Fig. 6 Migration of Mac-1-expressing cells to Dyn A in a Transwell system. a, Mac-1-expressing HEK 293 cells (100 μl at 3 × 10^6 cell/ml) were added to the upper wells of the transwell chamber and their ability to migrate to different concentrations of Dyn A placed in the lower chamber was analyzed. After 16 hours at 37 °C, migrated cells were fixed, stained, and counted. Data are presented as numbers of migrated cells per field ± S.E. for five random fields per well. The figure is representative of 5 experiments. b, Mac-1-expressing or wild-type HEK 293 cells were added to the upper wells of the transwell chamber and their ability to migrate to 10 μM Dyn A placed in the lower chamber was analyzed as in A. Some Mac-1-HEK293 cells were pretreated with 20 μg/ml of mAbs 44a (anti-αM), IB4 (anti-β2) or OKM1 (non function-blocking anti-αM) or medium alone before addition to the upper wells. ***, medium alone. […] The number of migrated cells was determined as in A. Data are presented as number of migrated cells per field ± S.E. for five random fields per well. […]\n(§4) Migration assays with wild-type and Mac-1-expressing HEK293 cells and purified macrophages using Transwell inserts (5 μm pore size) were performed as previously described. […] The photographs were taken using a 20x objective and cells in […] and cells were counted. […]"}, "[5]": {"tested_on": "cells", "conditions": "cited from earlier work"}, "[6]": {"tested_on": "wild-type macrophages", "test": "Transwell migration of wild-type peritoneal macrophages to Dyn A", "format": "cell-based, mouse", "conditions": "10 μM Dyn A, 90 min at 37 °C, TG-elicited", "protocol": "as §3, §4"}}, "data": [{"compound": "CC[C@H](C)[C@H](NC(=O)[C@H](CCCNC(=N)N)NC(=O)[C@H](CCCNC(=N)N)NC(=O)[C@H](CC(C)C)NC(=O)[C@H](Cc1ccccc1)NC(=O)CNC(=O)CNC(=O)[C@@H](N)Cc1ccc(O)cc1)C(=O)N[C@@H](CCCNC(=N)N)C(=O)N1CCC[C@H]1C(=O)N[C@@H](CCCCN)C(=O)N[C@@H](CC(C)C)C(=O)N[C@@H](CCCCN)C(=O)N[C@@H](Cc1c[nH]c2ccccc12)C(=O)N[C@@H](CC(=O)O)C(=O)N[C@@H](CC(N)=O)C(=O)N[C@@H](CCC(N)=O)C(=O)O", "note": "[Dyn A]", "values": [{"measurement": "Localization of Dyn A in wild-type HEK293 cells", "setting": "[1]", "value": "entering inside wild-type HEK293 cells"}, {"measurement": "Inhibition of adhesion to fibrinogen", "setting": "[2]", "value": "67 ± 2", "unit": "%"}, {"measurement": "Localization of Dyn A in Mac-1-HEK293 cells", "setting": "[3]; 20 μM Dyn A", "value": "primarily associated with the cell periphery"}, {"measurement": "Number of Mac-1-HEK293 cells accumulating Dyn A vs wild-type", "setting": "[3]; Dyn A, anti-dynorphin antibodies", "value": "significantly smaller number of Mac-1-HEK293 cells accumulated Dyn A"}, {"measurement": "Migration of Mac-1-deficient macrophages (in words)", "setting": "[4]", "value": "significantly impaired"}, {"measurement": "Cell entry", "setting": "[5]", "value": "enters the cells"}, {"measurement": "Migration of wild-type macrophages (in words)", "setting": "[6]", "value": "migrated to Dyn A"}]}]}
